The EC50 is the midpoint of the concentration-response curve. Broadly, the melting point is the temperature of the solid-liquid transition.

Where a name gives a salt, the structure may show the parent alone.

One data set has as its target T1, hα7-wt nAChR (Homo sapiens, UniProt P36544).
T1 construct: expressed in transfected cells
Kind of data set: Ca2+ flux imaging (FDSS) (Protocol B), PAM activity with choline as agonist. The format is cell-based. To be noted: for EC50: "<5" = no top plateau at maximal concentration; for Emax: read-out: % efficacy. The procedure:
• Hanks buffered saline solution (HBSS, Invitrogen, Belgium), supplemented with 10 mM HEPES (Invitrogen, Belgium), CaCl2 to a final concentration of 5 mM, 0.1% Bovine serum albumin (Sigma-Aldrich NV, Belgium). b) Calcium-Sensitive Dye—Fluo-4AM • Fluo-4AM (Molecular Probes, USA) was dissolved in DMSO containing 10% Pluronic acid (Molecular Probes, USA) to give a stock solution which was diluted in assay buffer supplemented with 5 mM probenicid (Sigma, Aldrich NV, Belgium) to give a final concentration of 2 μM. c) 384-Well Plates • Black 384 well plate black/clear plates, PDL pre-coated (Corning, Incorporated, USA) d) Calcium Flux Measurement
A Functional drug screening system (FDSS, Hamamatsu) was used to measure intracellular free-calcium flux signals.
Monolayers of hα7-wt nAChR-expressing cells were grown in multi-well plates, in particular black-sided, transparent bottomed 384 well plates coated with poly-D-lysine for 24 hours prior to loading with a fluorescent calcium indicator, in a particular embodiment loading with fluo-4AM for up to 120 minutes.
PAM activity was detected in real time by applying the compounds to be tested to the loaded cells along with a α7 nicotinic receptor agonist during constant monitoring of cellular fluorescence in a FDSS. Compounds giving peak fluorescent responses greater than the response due to agonist alone, were considered to be α7 nAChR PAM's. In a particular embodiment, the α7 nicotinic receptor agonist was choline, a more particular embodiment choline applied at a sub-maximal concentration of 100 μM. In a further setting of the present invention the compounds to be tested were applied prior to the α7 nicotinic receptor agonist, in a particular embodiment up to 10 minutes prior to the agonist.
A control response to choline was calculated on each plate from the difference in peak in fluorescence in wells receiving either choline or assay buffer alone. Compounds of the present invention were tested at a concentration range from 0.01 μM to 30 μM. Compounds were considered to have an interesting activity when they potentiated the choline signal at least with 500% when tested at a concentration of 30 μM (the efficacy of 100 μM choline was defined as 100% in the absence of a PAM). The compounds also have a potentiating effect on the response to choline when measured by whole-cell patch clamp electrophysiology in GH4C1 cells stably over-expressing the human wild-type α7 receptor.

T1 sequence (P36544 23-502): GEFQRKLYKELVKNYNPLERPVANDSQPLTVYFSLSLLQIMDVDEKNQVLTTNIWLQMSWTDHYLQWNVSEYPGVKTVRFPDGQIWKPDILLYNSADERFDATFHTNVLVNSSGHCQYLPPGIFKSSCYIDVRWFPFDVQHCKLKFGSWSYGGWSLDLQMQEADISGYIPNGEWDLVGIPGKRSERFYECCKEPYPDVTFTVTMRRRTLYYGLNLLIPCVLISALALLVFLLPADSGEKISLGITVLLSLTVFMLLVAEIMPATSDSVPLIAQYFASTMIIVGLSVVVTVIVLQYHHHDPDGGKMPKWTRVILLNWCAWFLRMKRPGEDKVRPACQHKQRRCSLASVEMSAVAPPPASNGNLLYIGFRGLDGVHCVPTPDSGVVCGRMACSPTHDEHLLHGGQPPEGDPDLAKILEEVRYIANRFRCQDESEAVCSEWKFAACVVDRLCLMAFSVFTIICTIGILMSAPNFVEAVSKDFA

Regarding `CCc1cc(-c2nc(Nc3ccc(F)c(C(F)(F)F)c3)nn2CCO)ccn1` [Compound 88], the melting point came to 183 °C. On hα7-wt nAChR, the EC50 was 631 nM.
On the same counts, the results for `COc1cc(Nc2nc(-c3ccnc(C)c3)n(CCC(=O)N(C)C)n2)ccc1F` [Compound 187] are 137.3 °C and 3980 nM.
Consider `CN(C)C(=O)CCn1nc(Nc2ccc(F)c(C(F)(F)F)c2)nc1-c1ccc(NC2CC2)nc1` [Compound 133], for which the melting point was determined as 150.9 °C. The EC50 on hα7-wt nAChR is 100 nM.
On the same counts, the results for `Cc1ccncc1-c1nc(Nc2ccc(F)c(C(F)(F)F)c2)nn1CC(=O)NC1CC1` [Compound 120] are 251 °C and 3980 nM.
On the same counts, the results for `Cc1cc(Nc2nc(-c3ccnc(Cl)c3)n(CCC(=O)N(C)C)n2)ccc1F` [Compound 192] are 149 °C and 631 nM.
`COc1ccc(Nc2nc(-c3ccnc(C4CC4)c3)n(CCF)n2)cc1C(F)(F)F` [Compound 44]: the melting point came to 165.8 °C. For the same compound, at hα7-wt nAChR, the EC50 is 1260 nM and the Emax is 818%.
`Cc1cc(-c2nc(Nc3ccc4c(c3)OC(F)(F)O4)nn2CCC(=O)N(C)C)ccn1` [Compound 45] showed a melting point of 219.3 °C. Further, on hα7-wt nAChR, the EC50 is 631 nM.
On the same counts, the results for `CCc1ccc(-c2nc(Nc3ccc(F)c(C(F)(F)F)c3)nn2CCC(=O)N(C)C)cn1` [Compound 128] are 177.2 °C and 50.1 nM.
On the same counts, the results for `OCCn1nc(Nc2ccc(F)cc2)nc1-c1ccc(C2CC2)nc1` [Compound 171] are 169.8 °C and 2510 nM.
In turn, `Cc1cc(-c2nc(Nc3cc(F)c(F)c(F)c3)nn2C[C@H](C)O)cc(Cl)n1` [Compound 172] showed a melting point of 200 °C. On hα7-wt nAChR, the EC50 is 794 nM and the Emax worked out at 812%.
For the compound `CNC(=O)Cn1nc(Nc2cccc(OC(F)(F)F)c2)nc1-c1ccncc1F` [Compound 154], the melting point was 192.2 °C. For the same compound, on hα7-wt nAChR, the EC50 was 3160 nM.
For the compound `C[C@H](O)Cn1nc(Nc2ccc(F)c(C(F)(F)F)c2)nc1-c1ccnc(NC2CC2)c1` [Compound 103], the melting point came out at 176.5 °C. On hα7-wt nAChR, the EC50 is 794 nM.
On to `Cc1cc(-c2nc(Nc3ccc(F)c(C(F)(F)F)c3)nn2CC(=O)N2CCCC2)ccn1` [Compound 124], for which the melting point stood at 172.3 °C. The EC50 at hα7-wt nAChR is 2510 nM.
With `CC(C)c1ccc(-c2nc(Nc3cccc(C(F)(F)F)c3)nn2CCO)cn1` [Compound 71], the melting point stood at 177.1 °C. For the same compound, on hα7-wt nAChR, the EC50 was 794 nM and the Emax was 601%.
Compound `FCCn1nc(Nc2ccc(F)c(C(F)(F)F)c2)nc1-c1ccc(C2CC2)nc1` [Compound 96] displayed a melting point of 126.5 °C. Also, on hα7-wt nAChR, the EC50 was 2510 nM.
`Cc1ncccc1-c1nc(Nc2ccc(F)c(C(F)(F)F)c2)nn1CCC(=O)N(C)C` [Compound 126] registered a melting point of 171.5 °C. Further, the EC50 on hα7-wt nAChR was 1260 nM.
`COCCNC(=O)Cn1nc(Nc2cccc(C(F)(F)F)c2)nc1-c1ccc2c(c1)OCCO2` [Compound 82] came in with a melting point of 166.3 to 168.3 °C. Besides, the EC50 at hα7-wt nAChR is 200 nM.
On the same counts, the results for `CNC(=O)Cn1nc(Nc2cccc(OC(F)(F)F)c2)nc1-c1ccc2c(c1)OCCN2C` [Compound 157] are 222.4 °C and 398 nM.
On the same counts, the results for `Cc1cc(C(=O)NCCCn2nc(Nc3cccc(C(F)(F)F)c3)nc2-c2ccncc2)no1` [Compound 8] are 152.9 to 154.9 °C and 2510 nM.
Consider `O=C(CCn1nc(Nc2cccc(C(F)(F)F)c2)nc1-c1ccncc1)N1CCOCC1` [Compound 86], for which the EC50 at hα7-wt nAChR was 1260 nM.
On the same count and under the same terms, to `COc1ccc(Cl)cc1Nc1nc(-c2ccc3c(c2)OCCO3)n(CCC(=O)N(C)C)n1` [Compound 197] belongs 126 nM; to `C[C@H](O)Cn1nc(Nc2ccc(F)c(C(F)(F)F)c2)nc1-c1ccnc(C2CC2)c1` [Compound 102], 2000 nM.
For `COc1cc(Nc2nc(-c3ccnc(NCCO)c3)n(CC(=O)NCCO)n2)cc(C(F)(F)F)c1` [Compound 147], at hα7-wt nAChR, the EC50 was above 10000 nM and the Emax amounted to 864%.
Turning to `CC(O)Cn1nc(Nc2cccc(OC(F)(F)F)c2)nc1-c1ccnc(C2CC2)c1` (stereo not shown) (as salt: HCl) [Compound 151], the melting point amounted to 207.5 °C.
As to `CN(C)C(=O)CCn1nc(Nc2cccc(Cl)c2)nc1-c1ccc2c(c1)OCCO2` [Compound 195], at hα7-wt nAChR, the EC50 was 79.4 nM.
Turning to `CCNc1cnccc1-c1nc(Nc2cccc(OC(F)(F)F)c2)nn1CC(C)O` (stereo not shown) [Compound 149], on hα7-wt nAChR, the EC50 is 1000 nM and the Emax amounted to 704%.
As for `N/C(CCn1nc(Nc2ccc(F)c(C(F)(F)F)c2)nc1-c1ccnc(Cl)c1)=N\O` [Compound 55], the melting point turned out to be 166.8 °C.
Same read-out and setting: then `CC(C)(C)OC(=O)CCn1nc(Nc2ccc(F)c(C(F)(F)F)c2)nc1-c1ccnc(CN)c1` [Compound 30], with 151.6 °C.
Take `CCNc1cc(-c2nc(Nc3ccc(F)c(C(F)(F)F)c3)nn2C[C@H](C)O)ccn1` [Compound 99]: on hα7-wt nAChR, the EC50 is 1000 nM.
The same measure, in the same setting: to `CCNC(=O)Cn1nc(Nc2cc(Br)cc(C(F)(F)F)c2)nc1-c1ccc(OC)c(OCc2ccccc2)c1` [Compound 142] belongs 100 nM.
Turning to `COc1cc(OC)c(Nc2nc(-c3ccncc3)n(CCO)n2)cc1Cl` [Compound 15], the melting point was 207.2 to 207.9 °C.
For the compound `CN(C)CCNC(=O)Cn1nc(Nc2cccc(OC(F)(F)F)c2)nc1-c1ccc2c(c1)OCCO2` [Compound 161], at hα7-wt nAChR, the EC50 is 1580 nM and the Emax came to 550%.
`CC(C)NC(=O)CCn1nc(Nc2cccc(C(F)(F)F)c2)nc1-c1ccncc1` [Compound 22] returned a melting point of 196.5 to 197.2 °C.
With `C[C@H](O)Cn1nc(Nc2cc(F)c(F)c(F)c2)nc1-c1ccnc(NC2CC2)c1` [Compound 173], at hα7-wt nAChR, the EC50 was 501 nM.
Compound `CC(C)(C)OC(=O)CCn1nc(Nc2ccc(F)c(C(F)(F)F)c2)nc1-c1ccnc(C#N)c1` [Compound 29] had a melting point of 156.1 °C.
Take `Cc1cc(-c2nc(Nc3ccc4c(c3)OC(F)(F)O4)nn2CC(C)O)ccn1` (stereo not shown) [Compound 198]: the EC50 at hα7-wt nAChR was above 10000 nM.
On the same count and under the same terms, to `CC(O)Cn1nc(Nc2cccc(OC(F)(F)F)c2)nc1-c1ccnc(C2CC2)c1` (stereo not shown) [Compound 151] belongs 2000 nM.
Regarding `CN(C)C(=O)CCn1nc(Nc2ccc(F)c(C(F)(F)F)c2)nc1-c1ccnc(CN)c1` [Compound 60], on hα7-wt nAChR, the EC50 was 3980 nM and the Emax amounted to 772%.
For `C[C@@H](O)Cn1nc(Nc2ccc(F)c(C(F)(F)F)c2)nc1-c1ccc(C2CC2)nc1` (as salt: HCl) (hydrate or solvate) [Compound 100], the melting point was determined as 204.6 °C.
Turning to `Cc1noc(CCn2nc(Nc3ccc(F)c(C(F)(F)F)c3)nc2-c2ccncc2)n1` [Compound 69], the EC50 at hα7-wt nAChR is 2000 nM.
The same measure, in the same setting: then `CN(C)C(=O)CCn1nc(Nc2ccc(F)c(C(F)(F)F)c2)nc1-c1cnc2c(c1)CCN2` [Compound 58], with 158 nM; and `C[C@H](O)Cn1nc(Nc2ccc(F)c(C(F)(F)F)c2)nc1-c1ccc(C2CC2)nc1` [Compound 101], with 631 nM.
In turn, `O=C(O)CCn1nc(Nc2ccc(F)c(C(F)(F)F)c2)nc1-c1ccnc(Cl)c1` [Compound 31] had a melting point of 180.7 °C.
Take `OCCn1nc(Nc2ccc(F)c(C(F)(F)F)c2)nc1-c1ccc(NC2CC2)nc1` [Compound 95]: on hα7-wt nAChR, the EC50 is 2000 nM and the Emax amounted to 899%.
In turn, `N#CCCn1nc(Nc2cccc(C(F)(F)F)c2)nc1-c1ccncc1` [Compound 64] showed a melting point of 155.9 to 157.1 °C.
On to `CN(C)C(=O)CCn1nc(N2CCc3ccc(C(F)(F)F)cc32)nc1-c1ccc2c(c1)OCCO2` [Compound 211], for which the EC50 on hα7-wt nAChR is 1000 nM.
Still for that read-out and setting: to `CC(C)(C)NC(=O)CCn1nc(Nc2ccc(F)c(C(F)(F)F)c2)nc1-c1ccncc1` [Compound 137] belongs 1580 nM.
With `COCCNc1ccc(-c2nc(Nc3ccc(F)c(C(F)(F)F)c3)nn2CCO)cn1` [Compound 93], on hα7-wt nAChR, the EC50 was 3160 nM and the Emax amounted to 764%.
As for `C[C@H](O)Cn1nc(Nc2ccc(F)c(C(F)(F)F)c2)nc1-c1cnc2ccoc2c1` [Compound 106], the EC50 on hα7-wt nAChR is 2510 nM.
For `OCCn1nc(Nc2cc(Cl)ccc2Cl)nc1-c1ccccc1` [Compound 17], the melting point lay within 140.5 to 142 °C.
In the case of `CNC(=O)CCn1nc(Nc2cccc(C(F)(F)F)c2)nc1-c1ccc2c(c1)OCCO2` [Compound 12], the EC50 at hα7-wt nAChR is 794 nM.

(Values after patent publication US8143419B2, “Trisubstituted 1,2,4-triazoles” (Janssen Pharmaceutica N. V., priority 2006, dated 2012).)
